According to publication PMC11783601, “Analogue-Sensitive Inhibition of Histone Demethylases Uncovers Member-Specific Function in Ribosomal Protein Synthesis” (Journal of the American Chemical Society, 2025):

System: endogenous 2OG enzymes
Assay: Effect of 6A/B on post-translational/post-synthetic modifications in HEK293T cells (Western blot, dot blot)
Assay type: cell-based, human
Method: To test the orthogonality of NOL toward wild type KDM4A, HEK293T cells, either nontransfected or transfected with KDM4A, were individually treated with DMSO, 400 μM 6A or 10 μM n-octyl IOX1, a nonspecific inhibitor of 2OG enzymes. […] To further probe for off-target effects of 6 on endogenous 2OG enzymes, HEK293T cells were cultured with DMSO or 400 μM 6A and examined for several postsynthetic modifications catalyzed by these dioxygenases. Key trimethylated lysine marks on extracted histone were analyzed by Western blot using corresponding antibodies (Figure S31). […] Similarly, no change in prolyl hydroxylation was detected when cellular extracts were subjected to the pan hydroxyproline antibody. […]
washed with TBST 3 times, 5 minutes each and incubated with methylene blue solution (Sigma 03978) for loading determination.
15. Determining the effect of 6A/B on post-translational modifications in HEK293T cells To determine the effects of 6B on 5hmC and 5mC levels, and correspondingly any proteins responsible for addition or removal of these motifs, HEK293-T cells (ATCC CRL-1573) were plated into 6-well tissue culture plates (Corning) in DMEM (Corning) supplemented with 10% FBS (Corning) and 1X Antibiotic/Antimycin (Penicillin/Streptomycin/Fungiozone) (Cytiva HyClone) in an incubator held at 37 °C with 5% CO2. At 75% confluency, cells were treated with 200µM 6B or equivalent volume of DMSO and left to incubate at 37 °C. 24 hours later, the media was aspirated, washed with 1X PBS (Corning) and uplifted via trypsinization (Gibco TrypLE™ Express Enzyme). Cells were centrifuged at 3000xg for 3 minutes, washed with 1X PBS and centrifuged again at 3000xg for 3 minutes.
To study the effect on genomic DNA, genomic DNA was extracted with Fisher GeneJET gemoic DNA Purification Kit (Fisher K0721) following manufactures protocol. 1000ng of gDNA, as measured via nanodrop, was then subject to Dot Blot experiment. Briefly, 20µL of 1000ng gDNA was added to 40µL of 2M NaOH-50mM EDTA solution for 3 minutes at room temperature. 140µL of 10mM Tris/1mM EDTA pH 8.0 (TE) buffer was added and heated at 95 °C for 10 minutes.
Aliquots were then transferred directly to ice and 200µL of 2M Ammonium Acetate was added and left on ice for 5 minutes. Meanwhile, PVDF Imoblinin P (Merck Millipore Ltd.) membrane was cut to size, activated with MeOH for 30 seconds and incubated in TE buffer for 5 minutes while shaking. The membrane was then placed on a 96-well Bio-Dot microfiltration apparatus (Bio-Rad), washed with 400µL of TE buffer and the gDNA solution was applied and vacuum filtered. 400µL of TE buffer was then used to wash the membrane post gDNA binding. The membrane was then dried at 37 °C for 30 minutes followed by blocking in 5% milk concentrate (Bio-Rad) TBST solution for 1 hour at room temperature. Primary antibody 5-mC (Abcam […]
was applied and left to rotate overnight at 4 °C. The following day, the blots were washed 3 times, 5 minutes each with TBST and secondary antibody of goat-anti Rabbit antibody (CST 7074) in 5% milk/TBST at 1-10000 dilution was added for 1 hour at room temperature while shaking. The […]
To study the effect of histone methyl motifs (H3K4me3, H3K9me3, H3K27me3, H3K36me3, H3K79me3) and hydroxyproline motif, cell pellets were lysed with RIPA buffer with EDTA (Fisher J61529) supplemented with 1X protease inhibitor tablet (Roche). […] The protein concentration was determined using Bradford assay kit (BioRad Laboratories) with BSA as a […]

Structure (SMILES): CCCCCCCCOC(=O)C(=O)NC(CC(C)C)C(=O)O [6A, L-Leu octyl-ester NOG]
- prolyl hydroxylation (pan hydroxyproline antibody) (HEK293T cells, 400 μM 6A): no change
- trimethylated K4, K9, K27, and K36 levels in histone H3 (HEK293T cells, 400 μM 6A, Western blot): No change
- 5mC, 5hmC, and m6A modifications on DNA and RNA (HEK293T cells, dot blot assays): no effect
- 5mC and 5hmC marks on genomic DNA (HEK293T cells, dot-blot assay): no inhibitory effect
- dimethyllysine, trimethyllysine and hydroxyproline marks on cellular proteins (HEK293T cellular extracts, pan antibodies, Western blot): no inhibitory effect
